In ChEMBL document CHEMBL6078618, “Exploring quinoxaline derivatives: An overview of a new approach to combat antimicrobial resistance” (Eur J Med Chem, 2024):
Values after ≈ are worked out from the molar mass of the structure shown.

Columns and labels:
Rhizoctonia solani = assay: Antifungal activity against Rhizoctonia solani; type: functional, organism-based
Escherichia coli [1] = assay: Antibacterial activity against Escherichia coli E38 assessed as reduction in bacterial growth by measuring minimum bactericidal concentration incubated for 16 to 20 hrs by serial dilution method; type: functional; settings: time 16-20 hrs
Escherichia coli [2] = assay: Antimicrobial activity against Escherichia coli NCIM 2065 assessed as zone of inhibition incubated for 24 hrs by agar diffusion method; type: functional
Bacillus pumilus = assay: Antimicrobial activity against Bacillus pumilus; type: functional
Escherichia coli [3] = assay: Antibacterial activity against Escherichia coli ATCC 25922 assessed as reduction in bacterial growth by broth microdilution method; type: functional
Staphylococcus aureus [4] = assay: Antibacterial activity against Staphylococcus aureus ATCC 25923 assessed as reduction in bacterial growth incubated for 24 hrs by serial dilution method; type: functional
Fusarium oxysporum = assay: Antifungal activity against Fusarium oxysporum; type: functional
Candida albicans [5] = assay: Antifungal activity against Candida albicans assessed as reduction in microbial growth; type: functional
MCF7 = assay: Anticancer activity against human MCF7 cells assessed as reduction in cell growth; type: functional, cell-based
Pseudomonas aeruginosa = assay: Antibacterial activity against Pseudomonas aeruginosa ATCC 27853 assessed as inhibition of bacterial growth; type: functional
Micrococcus luteus = assay: Antibacterial activity against Micrococcus luteus assessed as reduction in microbial growth; type: functional
Xanthomonas axonopodis = assay: Antimicrobial activity against Xanthomonas axonopodis; type: functional, organism-based
Staphylococcus aureus [6] = assay: Antibacterial activity against Staphylococcus aureus; type: functional
Nakaseomyces glabratus = assay: Antifungal activity against Candida glabrata; type: functional
Candida albicans [7] = assay: Antifungal activity against Candida albicans; type: functional
Candida tropicalis = assay: Antifungal activity against Candida tropicalis; type: functional
Pichia kudriavzevii = assay: Antifungal activity against Candida krusei; type: functional

S=c1[nH]nc(NCNc2n[nH]c(=S)s2)s1
EC50 (Rhizoctonia solani): 295 µg/mL (≈ 1060 µM)

Nc1ccc(Sc2nc3ccccc3nc2Cl)cc1
MBC (Escherichia coli [1]): 2.5 µg/mL (≈ 8.69 µM)
inhibition zone (IZ) (Escherichia coli [2]): 15 mm

Nc1ccc(Sc2nc3ccccc3nc2Sc2ccc(N)cc2)cc1
MIC (Bacillus pumilus): 2.5 µg/mL (≈ 6.64 µM)
MIC (Escherichia coli [3]): 2.5 µg/mL (≈ 6.64 µM)

N#Cc1ccc(COC(=O)c2ccc(Oc3cnc4cc(Cl)ccc4n3)cc2)cc1
EC50 (Rhizoctonia solani): 12 µg/mL (≈ 28.9 µM)

O=C(O)c1cccc(Sc2nc3ccccc3nc2Sc2cccc(C(=O)O)c2)c1
MIC (Escherichia coli [3]): 2.5 µg/mL (≈ 5.75 µM)

NNC1=NNc2nc3ccc(S(=O)(=O)N4CCOCC4)cc3nc2S1
MIC (Staphylococcus aureus [4]): 1.92 µg/mL (≈ 5.03 µM)
MIC (Fusarium oxysporum): 15.6 µg/mL (≈ 40.9 µM)
MIC (Candida albicans [5]): 3.9 µg/mL

COc1ccc(OC)c(/C=C/c2nc3ccccc3nc2Nc2ccc(C(=O)O)cc2)c1
IC50 (MCF7): 10 µM

CCNc1nc2ccccc2nc1C(=O)c1cnc(-c2ccccc2)o1
MIC (Pseudomonas aeruginosa): 31.2 µg/mL (≈ 90.7 µM)
MIC (Micrococcus luteus): 62.5 µg/mL

COc1ccc(Sc2nc3ccccc3nc2Sc2ccc(OC)cc2)cc1
MIC (Bacillus pumilus): 5 µg/mL (≈ 12.3 µM)
MIC (Escherichia coli [3]): 2.5 µg/mL (≈ 6.15 µM)

O=S(=O)(c1ccc2nc(Cl)c(Cl)nc2c1)N1CCOCC1
MIC (Staphylococcus aureus [4]): 1.92 µg/mL (≈ 5.51 µM)

O=C(/C=C/c1ccccn1)c1ccc(Oc2cnc3ccccc3n2)cc1
EC50 (Xanthomonas axonopodis): 62.3 µM

O=[N+]([O-])c1ccc(Sc2nc3ccccc3nc2Sc2ccc([N+](=O)[O-])cc2)cc1
MIC (Escherichia coli [3]): 2.5 µg/mL (≈ 5.73 µM)

O=C(c1cnc(-c2ccc(Cl)cc2)o1)c1nc2ccccc2nc1N1CCOCC1
MIC (Pseudomonas aeruginosa): 31.2 µg/mL (≈ 74.3 µM)
EC50 (Xanthomonas axonopodis): 44.3 µM
MIC (Micrococcus luteus): 62.5 µg/mL

C/C(=N/Nc1nc2nc3cc(S(=O)(=O)N4CCOCC4)ccc3nc2s1)c1ccc(Br)cc1
MIC (Staphylococcus aureus [4]): 1.92 µg/mL (≈ 3.51 µM)

N#Cc1ccc(/C=C/c2nc3ccccc3nc2Nc2ccc(C(=O)O)cc2)cc1
MIC (Staphylococcus aureus [6]): 13.3 µM (≈ 5.22 µg/mL)

CCc1nc2ccc(-c3nnc(SCC(=O)c4ccc([N+](=O)[O-])cc4)n3CC)cc2nc1CC
MIC90 (Nakaseomyces glabratus): 2 µg/mL (≈ 4.2 µM)
MIC90 (Candida albicans [7]): 4 µg/mL (≈ 8.39 µM)
MIC90 (Candida tropicalis): 4 µg/mL (≈ 8.39 µM)
MIC90 (Pichia kudriavzevii): 2 µg/mL (≈ 4.2 µM)

O=C(O)c1ccc(Nc2nc3ccccc3nc2/C=C/c2ccc(O)cc2)cc1
IC50 (MCF7): 7 µM

COc1ccc(Sc2nc3ccccc3nc2Cl)cc1
MBC (Escherichia coli [1]): 2.5 µg/mL (≈ 8.26 µM)
inhibition zone (IZ) (Escherichia coli [2]): 13 mm

Cc1cc(O)n(C2=NNc3nc4ccc(S(=O)(=O)N5CCOCC5)cc4nc3S2)n1
MIC (Staphylococcus aureus [4]): 1.92 µg/mL (≈ 4.29 µM)
MIC (Fusarium oxysporum): 15.6 µg/mL (≈ 34.9 µM)
MIC (Candida albicans [5]): 3.9 µg/mL

CCCNc1nc2ccccc2nc1C(=O)c1cnc(-c2ccc(Cl)cc2)o1
MIC (Pseudomonas aeruginosa): 31.2 µg/mL (≈ 79.5 µM)
EC50 (Xanthomonas axonopodis): 42.4 µM
MIC (Micrococcus luteus): 62.5 µg/mL

Cc1cc(C)cc(Sc2nc3ccccc3nc2Cl)c1
MBC (Escherichia coli [1]): 2.5 µg/mL (≈ 8.31 µM)
inhibition zone (IZ) (Escherichia coli [2]): 11 mm

CNc1nc2ccccc2nc1C(=O)c1cnc(-c2ccccc2)o1
MIC (Pseudomonas aeruginosa): 31.2 µg/mL (≈ 94.6 µM)
MIC (Micrococcus luteus): 62.5 µg/mL

O=C(c1cnc(-c2ccc(Cl)cc2)o1)c1nc2ccccc2nc1NCc1ccccc1
MIC (Pseudomonas aeruginosa): 31.2 µg/mL (≈ 70.9 µM)
EC50 (Xanthomonas axonopodis): 6.72 µM
MIC (Micrococcus luteus): 62.5 µg/mL

CCCNc1nc2ccccc2nc1C(=O)c1cnc(-c2ccccc2)o1
MIC (Pseudomonas aeruginosa): 31.2 µg/mL (≈ 87.2 µM)
MIC (Micrococcus luteus): 62.5 µg/mL

Cc1nnc2n1Nc1nc3ccc(S(=O)(=O)N4CCOCC4)cc3nc1S2
MIC (Staphylococcus aureus [4]): 1.92 µg/mL (≈ 4.74 µM)

N#Cc1ccc(COC(=O)c2ccc(Oc3cnc4ccccc4n3)cc2)cc1
EC50 (Rhizoctonia solani): 8.54 µg/mL (≈ 22.4 µM)

O=C(OCc1ccc(Cl)cc1Cl)c1ccc(Oc2cnc3cc(Cl)ccc3n2)cc1
EC50 (Rhizoctonia solani): 35.2 µg/mL (≈ 76.5 µM)

CO/C=C(/C(=O)OC)c1ccccc1Oc1cc(Oc2ccccc2C#N)ncn1 [AZOXYSTROBIN]
EC50 (Rhizoctonia solani): 26.2 µg/mL (≈ 64.9 µM)

OC(Cn1cncn1)(Cn1cncn1)c1ccc(F)cc1F [FLUCONAZOLE]
MIC90 (Nakaseomyces glabratus): 2 µg/mL (≈ 6.53 µM)
MIC90 (Candida albicans [7]): 0.5 µg/mL (≈ 1.63 µM)
MIC90 (Candida tropicalis): 4 µg/mL (≈ 13.1 µM)
MIC90 (Pichia kudriavzevii): 16 µg/mL (≈ 52.2 µM)
